{"source": "patent US12553028B2", "about": "“Method to generate induced oligodendrocyte-lineage cells and treatment using such cells” (ACADEMIA SINICA, priority 2018, dated 2026)", "key": {"[1]": {"tested_on": "human primary skin fibroblasts", "assay": "Generation of induced OLGs from skin fibroblasts by chemical treatment (morphology / conversion)", "assay_type": "cell-based", "details": "for morphology of induced OLGs when replacing VPA: replaces VPA at the first step induction, compared to the original cocktail", "experimental": "(§1) Cells (1×10^4) were plated on each well of a 24-well plate. Culture in HG-DMEM (Life technologies) supplement with 10% fetal bovine serum (FBS) (Hyclone) for 2 days, replace the medium with Knockout medium supplement with 1% N2 supplement, 1% Albumax, 1% NEAA (treatment medium, all form Life technologies) or DMEM/F12 with 1% N2, 1% B27, 20 ng/mL PDGF-AA, EGF, bFGF and 10 ng/mL NT3 and added the different treatment chemical compound cocktails, The final condition are 3 mM Valproic acid for 2 days, 10 μM Y27632, 10 μM SU9516, 10 μM Forskolin (FSK) (Tocris) for 1 days; or 10 μM Mocetinostat or Pracinostat for 2 days, 10 μM Y27632, 10 μM SU9516, 10 μM Forskolin (FSK) (Tocris) for 1 days."}, "[2]": {"tested_on": "human primary skin fibroblasts", "assay": "Immunofluorescence assay of oligodendrocyte markers on induced cells", "assay_type": "cell-based", "experimental": "as §1\nThe induced OLGs were fixed with 4% formaldehyde for […] at room temperature. After washing with 1×PBS, cells were permeabilized with 0.03% Triton X-100 for 5 min. The cells were washed twice with 1×PBS, and then were incubated with primary antibodies [against Olig2 antibody (1:100; Merck millipore), Nkx2.2 (1:100; Stanta Cruz), O4 antibody (1:100; Merck millipore), MBP antibody (1:100; Proteintech), PDGFRα antibody (1:100; R&D systems)] and 4′,6-diamidino-2-phenylindole (DAPI) (1:1500; Life technologies) in blocking buffer (0.02% BSA in PBS) for overnight at 4° C. Cells were washed twice in 1×PBS, followed by an incubation in CF555 goat anti-rabbit secondary antibody (1:200; Life technologies), CF488 goat anti-rabbit secondary antibody (1:200; Biotium), CF555 goat anti-mouse secondary antibody (1:200; Life technologies), CF488 goat anti-mouse secondary antibody (1:200; Biotium), CF555 goat anti-rat secondary antibody (1:200; Life technologies) in blocking buffer for 1 hr in the dark at room temperature. Cells were washed twice in 1×PBS, and the cells will be keeping in 1×PBS. Fluorescence was analyzed by using a fluorescence microscope. The fluorescence intensity of each image was analyzed by an image analysis software (Image-Pro plus 4.5 software, MD, USA). Each immunofluorescence image was quantified more than 300 cells per field."}}, "note": "“Also recorded” adds a separate entry of the source."}
{"smiles": "COc1ccc2c(c1)c(C1=C(c3c[nH]c4ccccc34)C(=O)NC1=O)cn2CCCN(C)C", "note": "[Go6983, 3-{1-[3-(Dimethylamino)propyl]-5-methoxy-1H-indol-3-yl}-4-(1H-indol-3-yl)-1H-pyrrole-2,5-dione]", "values": [{"measurement": "conversion of fibroblasts into OLG like cells", "setting": "[1]", "result": "dispensable for the conversion process"}, {"measurement": "dendrite-like formation", "setting": "[1]; Go6983 together with Y27632 and SU9516", "result": "promoted the dendrite-like formation"}]}
{"smiles": "Nc1ccccc1NC(=O)c1ccc(CNc2nccc(-c3cccnc3)n2)cc1", "note": "[Mocetinostat, N-(2-aminophenyl)-4-((4-(pyridin-3-yl)pyrimidin-2-ylamino)methyl)benzamide]", "values": [{"measurement": "morphology of induced OLGs when replacing VPA", "setting": "[1]", "result": "more mature oligodendroglia morphology"}, {"measurement": "MBP expression (immunofluorescence)", "setting": "[2]", "result": "expressed; also recorded: stronger expression"}, {"measurement": "O4 expression (immunofluorescence)", "setting": "[2]", "result": "expressed; also recorded: stronger expression"}]}
{"smiles": "CCCCc1nc2cc(/C=C/C(=O)NO)ccc2n1CCN(CC)CC", "note": "[Pracinostat, (E)-3-(2-butyl-1-(2-(diethylamino)ethyl)-1H-benzo[d]imidazol-5-yl)-N-hydroxyacrylamide]", "values": [{"measurement": "morphology of induced OLGs when replacing VPA", "setting": "[1]", "result": "more mature oligodendroglia morphology"}, {"measurement": "MBP expression (immunofluorescence)", "setting": "[2]", "result": "expressed; also recorded: stronger expression"}, {"measurement": "O4 expression (immunofluorescence)", "setting": "[2]", "result": "expressed; also recorded: stronger expression"}]}
{"smiles": "COc1ccc2c(c1)/C(=C/c1cnc[nH]1)C(=O)N2", "note": "[SU9516, (Z)-3-((1H-imidazol-5-yl)methylene)-5-methoxyindolin-2-one]", "values": [{"measurement": "morphological change of fibroblasts", "setting": "[1]", "result": "domed-shape formation"}]}
{"smiles": "C[C@@H](N)[C@H]1CC[C@H](C(=O)Nc2ccncc2)CC1", "note": "[Y27632, Trans-4-[(1R)-1-Aminoethyl]-N-(4-pyridinyl)cyclohexane-carboxamide]", "values": [{"measurement": "morphological change of fibroblasts", "setting": "[1]", "result": "dendritic-like morphological change"}]}
{"smiles": "C=C[C@@]1(C)CC(=O)[C@]2(O)[C@@]3(C)[C@@H](O)CCC(C)(C)[C@@H]3[C@H](O)[C@H](OC(C)=O)[C@@]2(C)O1", "note": "[forskolin, (3R,4aR,5S,6S,6aS,10S,10aR, 10bS)-6,10,10b-Trihydroxy-3,4a,7,7,10a-pentamethyl-1-oxo-3-vinyldodecahydro-1H-benzo[f]chromen-5-yl acetate]", "values": [{"measurement": "promotion of the conversion (screen for supporting factors)", "setting": "[1]; screen of 22 drugs on the YSG cocktail after pre-treating with VPA", "result": "significantly promoted the conversion"}]}
{"smiles": "CCCC(CCC)C(=O)O", "note": "[valproic acid, 2-Propylpentanoic acid]", "values": [{"measurement": "reprogramming efficiency", "setting": "[1]; pretreating for 2 days before Y27632, SU9516, Go6983", "result": "enhance the reprogramming efficiency"}]}
